# Source: patent publication US20250057989A1, “TMEM-MCD IN THE MINIMALLY INVASIVE ASSESSMENT OF THE ACTIVITY STATUS OF TMEM IN ITS DISSEMINATION OF TUMOR CELLS” (Albert Einstein College of Medicine, priority 2018, published 2025)
# Entries after “also recorded” stand apart in the source; their conditions may differ.
# Tests used:
# [1] = test system: tumor cells; settings: mouse models of breast cancer; cited from earlier work
# [2] = test system: circulating tumor cells; settings: mice with breast cancer, chemotherapy-induced, oral administration; cited from earlier work
# [3] = test system: TMEM function (CTCs); assay: Clinical trial NCT02824575: oral rebastinib to inhibit TMEM function (CTCs) in breast cancer patients; type: in vivo, human
# [4] = test system: TMEM; settings: mice with breast cancer, oral administration; cited from earlier work
# [5] = test system: TMEM; assay: TMEM-MRI test (Uth) in PyMT mouse model, control vs rebastinib; type: in vivo; settings: mice, FIGS. 2-3
# Description: FIGS. 3A-3E. Evaluation of TMEM-MRI assay sensitivity and its values as a companion diagnostic is illustrated by using TMEM-MRI to detect the effect of the commercially available TMEM inhibitor Rebastinib in PyMT mouse model. FIG. 3A depicts a schematic illustration and cohort composition of the MMTV-PyMT Control vs Rebastinib (Ctrl-Reb) transplantation model. FIG. 3B is a chart depicting upper threshold ratio (Uth) of Ctrl-and rebastinib (Reb)-treated tumors. FIG. 3C depicts extravascular dextran assay, showing TMEM association with leaky (lower row), but no association of TMEM with non-leaky (upper row) blood vessel. FIG. 3D is a chart depicting the comparison between extravascular dextran leakiness between Ctrl and Reb-treated tumors. FIG. 3E is a chart depicting circulating tumor cells in mice treated with rebastinib or vehicle control. […]
# A new assay for TMEM activity has been developed and validated. […] Using intravenously injected Gd-DTPA, in a dynamic and quantitative assessment allowing assessment of the change in tissue permeability induced by TMEM, with adequate temporal and spatial resolution, the permeability change associated with the TMEM occurrence can be measured with high spatial resolution. […] TMEM facilitated increase in tissue diffusion, measured using the apparent diffusion constant or using Diffusion Tensor Imaging (DTI) may also be developed to detect TMEM. […]
smiles,measurement,setting,value
"CNC(=O)c1cc(Oc2ccc(NC(=O)Nc3cc(C(C)(C)C)nn3-c3ccc4ncccc4c3)c(F)c2)ccn1 [rebastinib, 4-[4-[(5-tert-butyl-2-quinolin-6-ylpyrazol-3-yl)carbamoylamino]-3-fluorophenoxy]-N-methylpyridine-2-carboxamide]",dissemination of tumor cells,[1],prevents dissemination of tumor cells
same,"cancer cell dissemination (circulating tumor cells in the blood, CTCs)",[2],inhibited
same,tumor cell dissemination (CTCs) in patients,[3],prevents dissemination of tumor cells; also recorded: most patients achieved complete inhibition of tumor cell dissemination
same,chemotherapy-induced TMEM activity (multiphoton imaging of the burst),[4],inhibited
same,TMEM activity detected by TMEM-MRI test,[5],inhibition of TMEM activity
